The target of data set [1] is T1, Purified recombinant matriptase (Homo sapiens, UniProt Q9Y5Y6).
T1 sequence (Q9Y5Y6 1-855): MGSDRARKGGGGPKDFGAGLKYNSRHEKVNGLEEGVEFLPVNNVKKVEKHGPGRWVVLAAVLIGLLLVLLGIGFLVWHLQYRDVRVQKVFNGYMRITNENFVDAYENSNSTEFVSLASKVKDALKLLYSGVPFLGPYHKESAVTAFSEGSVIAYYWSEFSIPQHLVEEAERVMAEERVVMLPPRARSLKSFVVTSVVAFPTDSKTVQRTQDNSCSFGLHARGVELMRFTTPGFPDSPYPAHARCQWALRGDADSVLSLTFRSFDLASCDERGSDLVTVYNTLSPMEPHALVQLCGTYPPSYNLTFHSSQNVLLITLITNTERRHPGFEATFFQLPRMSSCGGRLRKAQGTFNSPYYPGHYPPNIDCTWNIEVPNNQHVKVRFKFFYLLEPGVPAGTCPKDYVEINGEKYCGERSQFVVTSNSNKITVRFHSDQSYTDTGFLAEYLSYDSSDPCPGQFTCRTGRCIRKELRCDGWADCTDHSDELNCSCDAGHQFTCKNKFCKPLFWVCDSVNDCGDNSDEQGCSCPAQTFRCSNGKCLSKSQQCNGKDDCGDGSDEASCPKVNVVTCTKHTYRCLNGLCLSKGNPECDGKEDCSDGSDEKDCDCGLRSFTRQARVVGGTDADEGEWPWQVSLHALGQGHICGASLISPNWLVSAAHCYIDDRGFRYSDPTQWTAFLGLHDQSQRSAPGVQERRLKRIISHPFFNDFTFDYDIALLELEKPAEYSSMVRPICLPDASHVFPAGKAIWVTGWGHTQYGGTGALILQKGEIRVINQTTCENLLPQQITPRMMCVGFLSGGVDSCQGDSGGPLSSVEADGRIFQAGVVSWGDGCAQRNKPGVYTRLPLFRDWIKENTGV
Kind of data set: Matriptase fluorescence-based enzymatic assay (Boc-Gln-Ala-Arg-AMC cleavage). Format: biochemical. The source says: (§1) Purified recombinant matriptase was used in a fluorescence-based screening assay using Gln-Ala-Arg peptide as a substrate. In this assay the cleavage of AMC from Boc-Gln-Ala-Arg-7-amido-4 methylcoumarin hydrochloride (Boc-Gln-Ala-Arg-AMC) (Sigma, USA) was monitored by measuring the increase in fluorescence intensity of AMC released upon proteolytic cleavage at 480 nm (kex=360 nm). Similarly, enzymatic assays in fluorimetric or colorimetric format for uPA, Factor Xa, thrombin, plasmin and trypsin (Sigma, USA) were established using substrates pyroGlu-Gly-Arg-pNA.HCl, Boc-Gln-Ala-Arg-AMC, CH3OCO-D-CHA-Gly-Arg-PNA.AcoH, Pyro Glu-Phe-Lys—pNA.HCl and Boc-Gln-Ala-Arg-AMC, respectively.

The target of a further data set is T2, uPA (Homo sapiens, UniProt P00749).
T2 construct: purchased Sigma, USA
Kind of data set: uPA enzymatic assay (selectivity screening). The class given is biochemical.
Source text: as §1

The target in another data set is T3, Factor Xa (Homo sapiens, UniProt P00742).
T3 construct: uPA, Factor Xa, thrombin, plasmin and trypsin (Sigma, USA); purchased Sigma, USA
T3 sequence (P00742 235-488 limits assumed): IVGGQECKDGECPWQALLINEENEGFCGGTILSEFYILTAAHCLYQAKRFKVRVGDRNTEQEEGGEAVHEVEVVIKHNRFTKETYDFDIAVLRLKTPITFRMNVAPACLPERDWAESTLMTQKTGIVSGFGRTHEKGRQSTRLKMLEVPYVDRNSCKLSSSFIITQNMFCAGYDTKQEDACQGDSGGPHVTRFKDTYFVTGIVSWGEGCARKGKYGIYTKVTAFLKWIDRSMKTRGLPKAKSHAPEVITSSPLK
T3 sequence (P00742 41-179 partner limits assumed): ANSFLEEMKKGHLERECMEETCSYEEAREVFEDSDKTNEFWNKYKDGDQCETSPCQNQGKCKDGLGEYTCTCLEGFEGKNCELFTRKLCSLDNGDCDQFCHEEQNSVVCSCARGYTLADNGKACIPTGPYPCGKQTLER
Kind of data set: Factor Xa enzymatic assay (selectivity screening). Format: biochemical.
Source text: as §1

For a further data set, the target named is T4, thrombin (Homo sapiens, UniProt P00734).
T4 construct: uPA, Factor Xa, thrombin, plasmin and trypsin (Sigma, USA); purchased Sigma, USA
The data set can be described thus: Thrombin enzymatic assay (selectivity screening). The class given is biochemical.
Source text: as §1

The next data set addresses T5, plasmin (Homo sapiens, UniProt P00747).
T5 construct: uPA, Factor Xa, thrombin, plasmin and trypsin (Sigma, USA); purchased Sigma, USA
Kind of data set: Plasmin enzymatic assay (selectivity screening). Format: biochemical.
Source text: as §1

The test system of a further data set is trypsin. Kind of data set: Trypsin enzymatic assay (selectivity screening). Format: biochemical. The settings on record: % Inhibition at 5 μM.
Source text: as §1

Data set [2] has as its system DU145 cells. Kind of data set: Cytotoxicity, Calcein AM assay, DU145. Conditions: Homo sapiens, DU-145, 96 h, four days of incubation, read-out: Cell survival at 10 μM (%). The class given is cell-based. Here is the method:
Cytotoxicity of the compounds was tested in cell lines or primary cells using Calcein AM assay. This assay measures cell viability by quantitation of cleaved fluorescent product of a cell permeable substrate that is retained in the cytoplasm of cells with uncompromised cytoplasmic membrane integrity. The cells were seeded into 96-well plate and allowed to adhere for a day followed by addition of compound at several different concentrations. After four days of incubation with the compound, media was removed from the cells followed by addition of PBS and addition of Calcein AM reagent at 1 μM final concentration. The cells were then allowed to incubate at 37° C. for half an hour followed by reading on the fluorimeter. Percent viability was calculated based on fluorescence value obtained at 485/520 nm with cut off at 495 nm.

The test system of data set [3] is DU145 cells. Kind of data set: Migration assay in transwell chambers. The class given is cell-based. The settings on record: Homo sapiens, DU-145, 24 hours. Here is the method:
Migration assays were performed to determine the effect of matriptase inhibitors on cell motility. Cells were seeded with 10 μM test compound into transwell chambers and allowed to migrate for 24 hours using a combination of 10% FBS and 5 μg/ml fibronectin as chemoattractant.

Data set [4] concerns DU145 cells. The data set can be described thus: Cell invasion assay (matrigel transwell). The class given is cell-based. Conditions: Homo sapiens, DU-145, 48 hours. Here is the method: Cell invasion assays were done for quantitating the degree to which invasive cells penetrate a barrier essentially as in migration assay but with the use of matrigel consisting of basement membrane components in the transwell inserts and incubating for 48 hours. The barrier used was matrigel. This was followed by fixing and staining of the transwell insert with 0.5% crystal violet in 25% methanol in order to visualize cells migrated.

Data set [5] concerns DU145 cells. Kind of data set: Soft agar colony formation assay. Format: cell-based. The settings on record: Homo sapiens, DU-145, 504 h, about three weeks, read-out: EC50 for inhibition of soft agar colony formation. Here is the method:
Soft agar colony formation assays were performed to measure the long-term survival and anchorage-independent growth capacity of tumor cells. DU145 cells were seeded in 0.7% nutrient agar with the test compound on an underlay of 1.4% nutrient agar in a six well plate. On the day following cell seeding, liquid cell culture medium containing the compound was added to the well to prevent the agar from drying out and was changed regularly till the completion of the experiment. The cells were allowed to form colonies for a period of about three weeks following which the colonies were stained with 0.005% solution of crystal violet in 25% methanol. The colonies were counted under a dissecting microscope.

The subject of a further data set is DU145 tumors. Kind of data set: DU145 xenograft model. Format: in vivo. The settings on record: for Tumor growth inhibition (%): DU145 model, 15 days. The method, then:
(§2) In order to determine the in vivo efficacy, xenograft models were established by injecting 5×10^6 DU145 cells with matrigel or 5×10^6 PC3 cells without matrigel subcutaneously. Once the tumors reached palpable size (˜80 mm3), compound of Example 27 was administered in a vehicle comprising of 2% ethanol, 10% hydroxyl cyclodextrin in 0.9% saline. The compound of Example 27 was dosed subcutaneously to animals with DU145 tumors at 1.5, 5 and 15 mg/kg for 15 days. In the PC3 xenograft study, compound of Example 27 was administered at 0.5, 1.5, 5.0 and 15.0 mg/kg daily.

For a further data set, the system named is PC3 cells. The data set can be described thus: PC3 xenograft model. The class given is in vivo. The settings on record: for Tumor growth inhibition (%): PC3 model, 21 days. Here is the method:
as §2

Data set [6] in a line: Maximum tolerated dose (MTD) study. The class given is in vivo. Conditions: 14 days, male athymic mice. Here is the method:
An MTD study was performed for the compound of Example 27. […] The compound was administered at 1, 3, 10 and 30 mg/kg once daily in male athymic mice via subcutaneous route in 5 mice each. […]

The mark [7] stands for this setting: 1, 3, 10 and 30 mg/kg once daily subcutaneous.

Where two headings read alike, the source gives them in different places.

T5 sequence (P00747 581-810 limits assumed, species assumed): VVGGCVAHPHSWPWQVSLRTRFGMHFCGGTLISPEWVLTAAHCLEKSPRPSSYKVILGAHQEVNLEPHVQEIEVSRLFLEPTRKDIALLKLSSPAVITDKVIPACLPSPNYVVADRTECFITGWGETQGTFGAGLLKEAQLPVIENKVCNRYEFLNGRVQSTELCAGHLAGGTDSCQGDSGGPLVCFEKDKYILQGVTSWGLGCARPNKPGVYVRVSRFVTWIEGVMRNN
T5 sequence (P00747 97-580 partner limits assumed, species assumed): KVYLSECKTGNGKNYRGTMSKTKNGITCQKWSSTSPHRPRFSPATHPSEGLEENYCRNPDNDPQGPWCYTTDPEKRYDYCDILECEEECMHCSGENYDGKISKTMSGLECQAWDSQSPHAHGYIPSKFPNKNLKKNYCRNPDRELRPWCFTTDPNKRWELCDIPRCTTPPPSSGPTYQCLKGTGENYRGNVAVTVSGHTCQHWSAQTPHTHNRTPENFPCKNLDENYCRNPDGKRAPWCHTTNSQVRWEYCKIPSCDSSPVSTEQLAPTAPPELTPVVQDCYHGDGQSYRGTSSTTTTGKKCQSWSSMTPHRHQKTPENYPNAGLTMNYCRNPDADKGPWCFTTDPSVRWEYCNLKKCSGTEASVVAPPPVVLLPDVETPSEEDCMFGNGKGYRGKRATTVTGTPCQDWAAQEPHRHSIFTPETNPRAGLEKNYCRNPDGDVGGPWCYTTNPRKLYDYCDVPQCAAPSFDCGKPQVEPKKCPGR

With `[H]/N=C(\N)c1ccc(Oc2cc(Oc3ccc(/C(N)=N/[H])cc3)cc(C(=O)NC3CCC(N)CC3)c2)cc1` (stereo not drawn) [Example 27, N-(4-Amino-cyclohexyl)-3,5-bis-(4-carbamimidoyl-phenoxy)-benzamide], the IC50 in [1] (Table 1, read-out: Matriptase Inhibition IC50) was 17 nM; in [1] (Table 2, read-out: Matriptase IC50), 17 nM. In addition, the inhibition at 5 µM on uPA came out at 14%; against Factor Xa it was 83%; against thrombin, 41%; on plasmin it was 33%. In the data set with trypsin, the “Trypsin Inhibition (%)” value is 61%. For the same molecule, the viability at 10 µM in the data set with DU145 cells [2] was 100%. Moreover, the results for the inhibition at 10 µM in the data set with DU145 cells [3] and in the data set on DU145 cells [4] were 88% and 79%, respectively. For the same molecule, the EC50 in the data set on DU145 cells [5] came to 200 nM. Also, the “Tumor growth inhibition (%)” value with DU145 tumors (1.5 mg/kg subcutaneously) came out at 61.2%; in the data set with DU145 tumors (5 mg/kg subcutaneously) it was 84.5%; in the data set on DU145 tumors (15 mg/kg subcutaneously), 75%; in the data set on PC3 cells (0.5 mg/kg daily), 14%; in the data set with PC3 cells (1.5 mg/kg daily) it was 44%; in the data set with PC3 cells (5 mg/kg daily), 65%. In the data set with PC3 cells (15 mg/kg daily), the “Tumor growth inhibition (%)” value stood at 62%. Besides, in the data set with DU145 tumors (DU145 xenograft study), the “Reduction in tumor volume (in words)” value is recorded as “significant reduction in tumor volume”. Besides, the “Inhibition of tumor growth (in words)” value in the data set with PC3 cells (PC3 xenograft study) is “significant and dose-dependent inhibition of tumor growth”. Also, the Body weight reduction result in data set [6] (setting [7]) is “less than 2%”. Besides, the Clinical signs result in [6] (setting [7]) was “no gross changes in clinical signs”. The Mortality entry in [6] (setting [7]) is reported as “did not show any mortality”. The Tolerability result in data set [6] (doses up to 30 mg/kg once daily subcutaneous) is “well tolerated”.

The IC50 is the midpoint of a concentration-inhibition curve. The term inhibition denotes how much of the control response was suppressed. Broadly, the EC50 is the concentration giving half of the maximal effect.

Values taken from patent US8722930B2, “Protease inhibitors” (Orion Corporation, priority 2009, dated 2014).
